Laboratory results taken from patent publication US20010036941A1, “Use of 7-(1-aminomethyl-2-oxa-7-aza-bicyclo[3.3.0]oct-7-yl)-quinolonecarboxylic acid and -naphthyridonecarboxylic acid derivatives for the therapy of Helicobacter pylori infections and associated gastroduodenal disorders” (priority 1996, published 2001).
In brackets after ≈: the same amount, converted by molar mass. Structures can show the parent of a compound that is named as a salt.

Assays:
[1] = system: H. felis strain (ATCC 49179); assay: H. felis mouse model (clearance / eradication, urease test); assay type: in vivo, mice; settings: for Clearance %: 3-day treatment of infected mice, 2 × 10 mg/kg, 6 animals per group; for Eradication of H. felis in the mouse model: animal model (H. felis, mouse), monotherapeutic treatment
Method: The bacteria were administered as a suspension (0.1 ml with 10^8-10^9 bacteria) 4 times within 7 days using a pharyngeal tube. Alternatively, stomach homogenates of mice which had been infected earlier were also used for infection.
In some cases, pathogen eradication 24 weeks after the end of the treatment was also determined. In accordance with the “CLO” test used in clinical diagnostics, a microtitre-based urease test was used. Defined stomach biopsy specimens were tested for change of colour within a period of 24 hours.

[2] = system: H. pylori NCTC 11637; assay: MIC, agar dilution test, H. pylori NCTC 11637; assay type: cell-based; settings: for MIC: Helicobacter pylori, NCTC11637, lowest concentration with no visible growth
Method: (§1) For inoculation, fresh Helicobacter cultures from liquid culture or suspension of the pathogens from agar plates were used. The inoculated agar plates were incubated at 37° C. in an atmosphere containing 5-10% of CO2 for 48-72 hours.

[3] = system: H. pylori clinic isolate 008; assay: MIC, agar dilution test, H. pylori clinic isolate 008; assay type: cell-based; settings: lowest concentration with no visible growth; for MIC: Helicobacter pylori
Method: as §1

[4] = system: H. pylori; settings: cited from earlier work

SMILES | melting point | other results
COC(=O)c1cn(C2CC2)c2c(F)c(N3CC4CCOC4(CN)C3)c(F)cc2c1=O.Cl (stereo not drawn) | 109 to 111 °C | –
C=CCOC(=O)c1cn(C2CC2)c2c(F)c(N3CC4CCOC4(CN)C3)c(F)cc2c1=O.O=C(O)C(F)(F)F (stereo not drawn) | 118 to 119 °C (dec.) | –
NCC12CN(c3c(F)cc4c(=O)c(C(=O)OCc5ccccc5)cn(C5CC5)c4c3F)CC1CCO2.O=C(O)C(F)(F)F (stereo not drawn) | 119 to 120 °C (dec.) | –
CC(C)(CF)n1cc(C(=O)O)c(=O)c2cc(F)c(N3CC4CCOC4(CN)C3)cc21.O=C(O)C(F)(F)F (stereo not drawn) | 197 to 198 °C (dec.) | –
Cl.NCC12CN(c3cc4c(c(O)c3F)c(=O)c(C(=O)O)cn4C3CC3)CC1CCO2 (stereo not drawn) | 225 °C (dec.) | –
Cl.NCC12CN(c3nc4c(cc3F)c(=O)c(C(=O)O)cn4-c3cnsn3)CC1CCO2 (stereo not drawn) | 207 °C (dec.) | –
NCC12CN(c3cc4c(cc3F)c(=O)c3c(=O)[nH]sc3n4C3CC3)CC1CCO2.O=C(O)C(F)(F)F (stereo not drawn) | 215 °C (dec.) | –
CN1COc2c(N3CC4CCOC4(CN)C3)c(F)cc3c(=O)c(C(=O)O)cn1c23.Cl (stereo not drawn) | 233 °C | –
COc1c(N2CC3CCOC3(CN)C2)c(F)c(N)c2c(=O)c(C(=O)O)cn(C3CC3)c12.Cl (stereo not drawn) | 242 to 244 °C (dec.) | –
C[C@H]1COc2c(N3CC4CCOC4(CN)C3)c(F)cc3c(=O)c(C(=O)O)cn1c23.Cl (stereo partly drawn) | 191 to 193 °C (dec.) | –
Cc1c(F)c(N2CC3CCOC3(CN)C2)cc2c1c(=O)c(C(=O)O)cn2C1CC1.Cl (stereo not drawn) | 251 to 253 °C (dec.) | –
CNn1cc(C(=O)O)c(=O)c2cc(F)c(N3CC4CCOC4(CN)C3)c(F)c21.Cl (stereo not drawn) | 177 to 179 °C (dec.) | –
COc1c(N2CC3CCOC3(CN)C2)c(F)cc2c(=O)c(C(=O)O)cn(C3CC3)c12.O=C(O)C(F)(F)F (stereo not drawn) | 215 to 216 °C (dec.) | –
Cc1nc(N2CC3CCOC3(CN)C2)c(Cl)c2c1c(=O)c(C(=O)O)cn2C1CC1.O=C(O)C(F)(F)F (stereo not drawn) | 125 to 128 °C (dec.) | –
CCOC(=O)c1cn(C2CC2)c2c(F)c(N3CC4CCOC4(CN)C3)ncc2c1=O.O=C(O)C(F)(F)F (stereo not drawn) | 199 to 200 °C (dec.) | –
CCOC(=O)c1cn(C2CC2)c2c(F)c(N3CC4CCOC4(CN)C3)c(F)cc2c1=O.O=C(O)C(F)(F)F (stereo not drawn) | 139 to 141 °C | –
NCC12CN(c3ncc4c(=O)c(C(=O)O)cn(C5CC5)c4c3F)CC1CCO2 (stereo not drawn) (as salt: hydrochloride) | 301 to 304 °C (dec.) | –

SMILES | melting point | other results
Cl.NCC12CN(c3c(F)cc4c(=O)c(C(=O)O)cn(C5CC5)c4c3F)CC1CCO2 (racemic) [Substance A, rac. 7-(1-aminomethyl-2-oxa-7-aza-bicyclo[3.3.0]oct-7-yl)-1-cyclopropyl-6,8-difluoro-1,4-dihydro-4-oxo-3-quinolinecarboxylic acid hydrochloride] | – | Clearance % [1]: 67%; Eradication of the pathogen ([1]; 14-day treatment of the mice with 3×10 mg/kg): total eradication
Cl.N#Cc1c(N2CC3CCOC3(CN)C2)c(F)cc2c(=O)c(C(=O)O)cn(C3CC3)c12 (single isomer, unassigned; (+)) [Example 5 C, (+)-7-(1-aminomethyl-2-oxa-7-aza-bicyclo[3.3.0]oct-7-yl)-8-cyano-1-cyclopropyl-6-fluoro-1,4-dihydro-4-oxo-3-quinolinecarboxylic acid hydrochloride] | – | Clearance % [1]: 100%
O=C(O)c1cn(C2CC2)c2c(Cl)c(N3C[C@@H]4CCCN[C@@H]4C3)c(F)cc2c1=O [BAY Y 3118, 8-chloro-1-cyclopropyl-7-([S,S]-2,8-diazabicyclo[4.3.0]non-8-yl)-6-fluoro-1,4-dihydro-4-oxo-3-quinolinecarboxylic acid, reference compound] | – | Eradication of H. felis in the mouse model [1]: not possible to achieve eradication
COc1c(N2CC3CCOC3(CN)C2)c(F)c(N)c2c(=O)c(C(=O)O)cn(C3CC3)c12 (stereo not drawn) [Example 2 C, 5-amino-7-(1-aminomethyl-2-oxa-7-aza-bicyclo[3.3.0]oct-7-yl)-1-cyclopropyl-6-fluoro-1,4-dihydro-8-methoxy-4-oxo-3-quinolinecarboxylic acid] | 209 to 211 °C (dec.) | –
CCCCOC(=O)c1cn(C2CC2)c2c(F)c(N3CC4CCOC4(CN)C3)c(F)cc2c1=O (stereo not drawn) [Example 11 B, 1-Butyl 7-(1-aminomethyl-2-oxa-7-aza-bicyclo[3.3.0]oct-7-yl)-1-cyclopropyl-6,8-difluoro-1,4-dihydro-4-oxo-3-quinolinecarboxylate] | 117 to 119 °C (dec.) | –
C=CCOC(=O)c1cn(C2CC2)c2c(F)c(N3CC4CCOC4(CN)C3)c(F)cc2c1=O (stereo not drawn) [Example 12 B, Allyl 7-(1-aminomethyl-2-oxa-7-aza-bicyclo[3.3.0]oct-7-yl)-1-cyclopropyl-6,8-difluoro-1,4-dihydro-4-oxo-3-quinolinecarboxylate] | 133 to 135 °C (dec.) | –
C#CCOC(=O)c1cn(C2CC2)c2c(F)c(N3CC4CCOC4(CN)C3)c(F)cc2c1=O (stereo not drawn) [Example 13 B, Propargyl 7-(1-aminomethyl-2-oxa-7-aza-bicyclo[3.3.0]oct-7-yl)-1-cyclopropyl-6,8-difluoro-1,4-dihydro-4-oxo-3-quinolinecarboxylate] | 127 to 129 °C (dec.) | –
NCC12CN(c3c(F)cc4c(=O)c(C(=O)OCc5ccccc5)cn(C5CC5)c4c3F)CC1CCO2 (stereo not drawn) [Example 14 B, Benzyl 7-(1-aminomethyl-2-oxa-7-aza-bicyclo[3.3.0]oct-7-yl)-1-cyclopropyl-6,8-difluoro-1,4-dihydro-4-oxo-3-quinolinecarboxylate] | 118 to 119 °C (dec.) | –
CCOC(=O)COC(=O)c1cn(C2CC2)c2c(F)c(N3CC4CCOC4(CN)C3)c(F)cc2c1=O (stereo not drawn) [Example 15 B, Ethoxycarbonylmethyl 7-(1-aminomethyl-2-oxa-7-aza-bicyclo[3.3.0]oct-7-yl)-1-cyclopropyl-6,8-difluoro-1,4-dihydro-4-oxo-3-quinolinecarboxylate] | 144 to 146 °C (dec.) | –
CC(C)(C)n1cc(C(=O)O)c(=O)c2cc(F)c(N3CC4CCOC4(CN)C3)cc21 (stereo not drawn) [Example 17 B, 7-(1-aminomethyl-2-oxa-7-aza-bicyclo[3.3.0]oct-7-yl)-1-tert-butyl-6-fluoro-1,4-dihydro-4-oxo-3-quinolinecarboxylic acid] | 217 to 218 °C (dec.) | –
NC(=O)NCC12CN(c3c(F)cc4c(=O)c(C(=O)O)cn(C5CC5)c4c3F)CC1CCO2 (stereo not drawn) [Example 27, 1-cyclopropyl-6,8-difluoro-1,4-dihydro-4-oxo-7-(1-ureidomethyl-2-oxa-7-aza-bicyclo[3.3.0]oct-7-yl)-3-quinolinecarboxylic acid] | 185 to 187 °C (dec.) | MIC [2]: 0.5 µg/mL (≈ 1.12 µM); MIC [3]: ≤ 0.015 µg/mL
NC(=O)NCC12CN(c3c(F)cc4c(=O)c(C(=O)O)cn(C5CC5)c4c3OC(F)F)CC1CCO2 (stereo not drawn) [Example 29, 1-cyclopropyl-8-difluoromethoxy-6-fluoro-1,4-dihydro-4-oxo-7-(1-ureidomethyl-2-oxa-7-aza-bicyclo[3.3.0]oct-7-yl)-3-quinolinecarboxylic acid] | – | MIC [2]: 8 µg/mL (≈ 16.1 µM); MIC [3]: 8 µg/mL (≈ 16.1 µM)
NC(=O)NCC12CN(c3c(F)cc4c(=O)c(C(=O)O)cn([C@@H]5C[C@@H]5F)c4c3Cl)CC1CCO2 (stereo partly drawn) [Example 30, 8-chloro-6-fluoro-1-[(1R,2S)-2-fluoro-cyclopropyl]-1,4-dihydro-4-oxo-7-(1-ureidomethyl-2-oxa-7-aza-bicyclo[3.3.0]oct-7-yl)-3-quinolinecarboxylic acid] | – | MIC [2]: 0.125 µg/mL (≈ 0.259 µM); MIC [3]: 0.25 µg/mL (≈ 0.518 µM)
O=CNCC12CN(c3c(F)cc4c(=O)c(C(=O)O)cn(C5CC5)c4c3F)CC1CCO2 (stereo not drawn) [Example 31, 1-cyclopropyl-6,8-difluoro-7-(1-formylaminomethyl-2-oxa-7-aza-bicyclo[3.3.0]oct-7-yl)-1,4-dihydro-4-oxo-3-quinolinecarboxylic acid] | 208 to 209 °C (dec.) | MIC [2]: 0.5 µg/mL (≈ 1.15 µM); MIC [3]: < 0.5 µg/mL
C=Cc1c(F)c(N2CC3CCOC3(CN)C2)c(F)c2c1c(=O)c(C(=O)O)cn2C1CC1.Cl (stereo not drawn) [Ref.*^), 7-(1-aminomethyl-2-oxa-7-aza-bicyclo[3.3.0]oct-7-yl)-1-cyclopropyl-6,8-difluror-1,4-dihydro-4-oxo-5-vinyl-3-quinolinecarboxylic acid hydrochloride] | – | Activity against H. pylori [4]: relatively low
C=Cc1c(F)c(N2CC3CCOC3(CN)C2)c(F)c2c1c(=O)c(C(=O)O)cn2C1CC1.Cl (stereo not drawn) [Ref.*^)] | – | MIC H. pylori 11637 ([2]; lowest concentration with no visible growth): 0.25 µg/mL; MIC H. pylori 008 [3]: 0.25 µg/mL
CCn1cc(C(=O)O)c(=O)c2cc(F)c(N3CCNC(C)C3)c(F)c21 (stereo not drawn) [lomefloxacin, reference compound] | – | Eradication of H. felis in the mouse model [1]: not capable of eradicating the germ
